# From ChEMBL document CHEMBL1681661, “Design of novel CXCR4 antagonists that are potent inhibitors of T-tropic (X4) HIV-1 replication” (Bioorg Med Chem Lett, 2011)
# Tests used:
# [1] = Cytotoxicity against human MT4 cells expressing CD4 and CXCR4 assessed as cell viability; type: cell-based
# [2] = test system: Human immunodeficiency virus 1; assay: Antiviral activity against X4 tropic HIV1 NL4.3 infected in CD4 and CXCR4 expressing human MT4 cells assessed as inhibition of viral cytopathicity; type: functional, organism-based; conditions: Human immunodeficiency virus 1, NL4.3, MT4
# [3] = AUC (0 to infinity) in dog; type: ADME, organism-based, Canis lupus familiaris; design: time infinity; concentration or dose not given beside the values; conditions: plasma
# [4] = Cmax in rat; type: ADME, organism-based; conditions: in vivo
# [5] = Cmax in dog; type: ADME, organism-based, Canis lupus familiaris; conditions: in vivo
# [6] = test system: Human immunodeficiency virus 1; assay: Antiviral activity against X4 tropic HIV1 NL4.3 infected in human PBMC assessed as inhibition of viral cytopathicity; type: functional, organism-based; conditions: Human immunodeficiency virus 1, NL4.3
# [7] = test system: Human immunodeficiency virus 1; assay: Antiviral activity against X4 tropic HIV1 NL4.3 infected in human PBMC assessed as inhibition of viral cytopathicity in presence of 1 mg/ml of alpha-acid glycoprotein; type: functional
# [8] = AUC (0 to infinity) in rat; type: ADME, organism-based; design: time infinity; concentration or dose not given beside the values; conditions: plasma
# [9] = Volume of distribution at steady state in rat at 10 umol/kg, iv; type: ADME, organism-based; conditions: in vivo, read-out: Vdss
# [10] = Half life in dog at 5 umol/kg, iv; type: ADME, organism-based, Canis lupus familiaris; conditions: in vivo
# [11] = Clearance in dog at 5 umol/kg, iv; type: ADME, organism-based, Canis lupus familiaris; conditions: in vivo
# [12] = Oral bioavailability in dog at 12.5 umol/kg; type: ADME, organism-based, Canis lupus familiaris; conditions: in vivo
# [13] = Half life in rat at 10 umol/kg, iv; type: ADME, organism-based; conditions: in vivo
# [14] = Clearance in rat at 10 umol/kg, iv; type: ADME, organism-based; conditions: in vivo
# [15] = molecular target: T1, C-X-C chemokine receptor type 4 (Homo sapiens, UniProt P61073); assay: Displacement of [125I]SDF-1alpha from CXCR4 in human CEM-CCRF cells by liquid scintillation counting; type: cell-based
# [16] = Volume of distribution at steady state in dog at 5 umol/kg, iv; type: ADME, organism-based, Canis lupus familiaris; conditions: in vivo, read-out: Vdss
# [17] = Oral bioavailability in rat at 100 umol/kg, […]; type: ADME, organism-based; conditions: in vivo
# [18] = molecular target: T1, C-X-C chemokine receptor type 4; assay: Antagonist activity at CXCR4 in human CEM-CCRF cells assessed as inhibition of SDF-1-induced calcium signaling; type: functional, cell-based
# T1 sequence (P61073 whole entry): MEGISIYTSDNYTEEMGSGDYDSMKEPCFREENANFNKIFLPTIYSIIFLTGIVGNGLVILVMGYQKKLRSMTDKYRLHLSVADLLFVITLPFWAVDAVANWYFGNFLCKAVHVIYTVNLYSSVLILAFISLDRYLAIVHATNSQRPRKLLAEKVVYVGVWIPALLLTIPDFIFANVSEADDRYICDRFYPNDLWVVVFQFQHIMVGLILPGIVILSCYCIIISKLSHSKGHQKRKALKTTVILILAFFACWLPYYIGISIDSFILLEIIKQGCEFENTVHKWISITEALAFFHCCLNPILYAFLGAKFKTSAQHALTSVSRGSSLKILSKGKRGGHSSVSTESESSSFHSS
smiles,measurement,setting,value
NCCCCN(Cc1ncccc1Cl)C1CCCc2cccnc21 (stereo not given),CC50,[1],191000 nM
same,IC50,[2],0.4 nM
CC(c1ccccn1)N(CCCCN)Cc1nc2ccccc2[nH]1 (stereo not given),CC50,[1],> 161000 nM
same,IC50,[2],18 nM
CCC(c1ccccn1)N(CCCCN)Cc1nc2ccccc2[nH]1 (stereo not given),CC50,[1],> 162000 nM
same,IC50,[2],874 nM
CC(C)C(c1ccccn1)N(CCCCN)Cc1nc2ccccc2[nH]1 (stereo not given),CC50,[1],> 162000 nM
same,IC50,[2],16300 nM
NCCCCN(Cc1nc2ccccc2[nH]1)C(c1ccccc1)c1ccccn1 (stereo not given),CC50,[1],> 148000 nM
same,IC50,[2],13300 nM
CC(C)(c1ccccn1)N(CCCCN)Cc1nc2ccccc2[nH]1,CC50,[1],> 159000 nM
same,IC50,[2],2500 nM
NCCCCN(Cc1ccccn1)Cc1nc2ccccc2[nH]1,CC50,[1],151000 nM
same,IC50,[2],41 nM
NCCCCN(Cc1nc2ccccc2[nH]1)Cc1ncccc1O,CC50,[1],> 149000 nM
same,IC50,[2],> 149000 nM
CC(C)c1cccnc1CN(CCCCN)Cc1nc2ccccc2[nH]1,CC50,[1],145000 nM
same,IC50,[2],34 nM
Cc1cccnc1C(C)N(CCCCN)Cc1nc2ccccc2[nH]1 (stereo not given),CC50,[1],> 146000 nM
same,IC50,[2],505 nM
Cc1ccnc(C(C)N(CCCCN)Cc2nc3ccccc3[nH]2)c1 (stereo not given),CC50,[1],> 142000 nM
same,IC50,[2],438 nM
Cc1ccc(C(C)N(CCCCN)Cc2nc3ccccc3[nH]2)nc1 (stereo not given),CC50,[1],> 146000 nM
same,IC50,[2],3.8 nM
Cc1cccc(C(C)N(CCCCN)Cc2nc3ccccc3[nH]2)n1 (stereo not given),CC50,[1],> 167000 nM
same,IC50,[2],4100 nM
CC(c1cccc(N)n1)N(CCCCN)Cc1nc2ccccc2[nH]1 (stereo not given),CC50,[1],> 149000 nM
same,IC50,[2],2290 nM
Cc1cccnc1CN(CCCCN)C(C)c1ccccn1 (stereo not given),CC50,[1],45400 nM
same,IC50,[2],1.1 nM
Cc1cccc(CN(CCCCN)[C@H]2CCCc3cccnc32)n1,AUC(0-inf),[3],7.75 µM·h
same,Cmax,[4],1460 nM
same,IC50,[2],2.4 nM
same,Cmax,[5],2060 nM
same,IC50,[6],15.8 nM
same,fold change (FC),[7],0.6
same,AUC(0-inf),[8],8.75 µM·h
Cc1cnc(CN(CCCCN)[C@H]2CCCc3cccnc32)c(C)c1,AUC(0-inf),[3],22.1 µM·h
same,Vd,[9],28.5 L/kg
same,half-life,[10],39.6 h
same,clearance,[11],3.3 mL/min/kg
same,bioavailability,[12],51%
same,Cmax,[4],2700 nM
same,half-life,[13],10.5 h
same,IC50,[2],7.7 nM
same,Cmax,[5],7160 nM
same,clearance,[14],31.7 mL/min/kg
same,IC50,[6],3.6 nM
same,fold change (FC),[7],2.8
same,IC50,[15],62.9 nM
same,Vd,[16],8.7 L/kg
same,bioavailability,[17],42%
same,AUC(0-inf),[8],20.7 µM·h
NCCCCN(Cc1ncccc1N)[C@H]1CCCc2cccnc21,AUC(0-inf),[3],21.2 µM·h
same,Cmax,[4],1660 nM
same,IC50,[2],1.6 nM
same,Cmax,[5],7740 nM
same,IC50,[6],2.1 nM
same,fold change (FC),[7],4.3
same,AUC(0-inf),[8],8.73 µM·h
C[C@@H](c1ccccn1)N(CCCCN)Cc1nc2ccccc2[nH]1,AUC(0-inf),[3],1.7 µM·h
same,Cmax,[4],180 nM
same,IC50,[2],1.4 nM
same,Cmax,[5],1330 nM
same,IC50,[6],2 nM
same,fold change (FC),[7],5.4
same,AUC(0-inf),[8],0.33 µM·h
Cc1cccnc1CN(CCCCN)[C@@H](C)c1ccccn1,AUC(0-inf),[3],7.49 µM·h
same,Cmax,[4],1580 nM
same,IC50,[2],1.1 nM
same,IC50,[6],2.1 nM
same,fold change (FC),[7],14.2
same,AUC(0-inf),[8],11.2 µM·h
NCCCCN(Cc1ccccn1)C1CCCc2cccnc21 (racemic),CC50,[1],165000 nM
same,IC50,[2],15.3 nM
Cc1cccnc1CN(CCCCN)C1CCCc2cccnc21 (racemic),CC50,[1],32400 nM
same,IC50,[2],23.3 nM
Cc1ccnc(CN(CCCCN)C2CCCc3cccnc32)c1 (racemic),CC50,[1],36900 nM
same,IC50,[2],47.8 nM
Cc1ccc(CN(CCCCN)C2CCCc3cccnc32)nc1 (racemic),IC50,[18],35 nM
same,CC50,[1],35300 nM
same,IC50,[2],5.3 nM
Cc1cccc(CN(CCCCN)C2CCCc3cccnc32)n1 (racemic),CC50,[1],299000 nM
same,IC50,[2],2.9 nM
Cc1cc(C)nc(CN(CCCCN)C2CCCc3cccnc32)c1 (racemic),CC50,[1],149000 nM
same,IC50,[2],17 nM
Cc1cnc(CN(CCCCN)C2CCCc3cccnc32)c(C)c1 (racemic),IC50,[18],19 nM
same,CC50,[1],32600 nM
same,IC50,[2],0.63 nM
NCCCCN(Cc1cccc(N)n1)C1CCCc2cccnc21 (racemic),CC50,[1],158000 nM
same,IC50,[2],30 nM
COCc1cccc(CN(CCCCN)C2CCCc3cccnc32)n1 (racemic),CC50,[1],> 154000 nM
same,IC50,[2],553 nM
NCCCCN(Cc1ncccc1O)C1CCCc2cccnc21 (racemic),CC50,[1],149000 nM
same,IC50,[2],113 nM
NCCCCN(Cc1ncccc1N)C1CCCc2cccnc21 (racemic),CC50,[1],169000 nM
same,IC50,[2],19.7 nM
CC(C)c1cccnc1CN(CCCCN)C1CCCc2cccnc21 (racemic),CC50,[1],33800 nM
same,IC50,[2],8.4 nM
NCCCCN(Cc1ncccc1CO)C1CCCc2cccnc21 (racemic),CC50,[1],155000 nM
same,IC50,[2],2.1 nM
CC(c1ccccn1)N(CCCCN)Cc1ncccc1N (racemic),IC50,[18],72 nM
same,CC50,[1],167000 nM
same,IC50,[2],18.4 nM
CC(c1ccccn1)N(CCCCN)Cc1ncccc1C(F)(F)F (racemic),IC50,[18],111 nM
same,CC50,[1],> 155000 nM
same,IC50,[2],39.1 nM
CC(c1ccccn1)N(CCCCN)Cc1ncccc1C(C)(C)C (racemic),CC50,[1],158000 nM
same,IC50,[2],1.6 nM
Cc1ccc(CN(CCCCN)C(C)c2ccccn2)nc1 (racemic),CC50,[1],158000 nM
same,IC50,[2],48.1 nM
Cc1cccc(CN(CCCCN)C(C)c2ccccn2)n1 (racemic),IC50,[18],183 nM
same,CC50,[1],> 145000 nM
same,IC50,[2],15 nM
Cc1cnc(CN(CCCCN)C(C)c2ccccn2)c(C)c1 (racemic),IC50,[18],20 nM
same,CC50,[1],163000 nM
same,IC50,[2],1.8 nM
Cc1ccnc(C(C)N(CCCCN)Cc2ncccc2C)c1 (racemic),CC50,[1],138000 nM
same,IC50,[2],0.3 nM
NCCCCN(Cc1nc2ccccc2[nH]1)[C@H]1CCCc2cccnc21 [MAVORIXAFOR],IC50,[2],4.8 nM
